In publication PMC6120666 (The EMBO Journal, 2018):

Experiments:
[1] = target: T1, XIAP BIR2 - RIPK2 interaction (Homo sapiens, UniProt O43353); assay: GST-BIR2-XIAP pulldown of RIPK2; assay type: binding; conditions: for pulldown of RIPK2 by GST-BIR2-XIAP from cell lysates: U2OS/NOD2 lysates, inhibitors at 100-fold IC50 of RIPK2 kinase activity; for GST-BIR2-XIAP binding to recombinant RIPK2 kinase domain: recombinant human RIPK2 KD (dephosphorylated), same inhibitor concentrations
T1 construct: U2OS/NOD2 cells were lysed in TBS lysis buffer; endogenous in cells; host or cells: U2OS/NOD2 cell lysate (RIPK2); E. coli BL21 (GST-BIR2-XIAP)
Experimental: For co‐immunoprecipitation of HA‐XIAP with RIPK2, transfected and treated cells were lysed in TBS buffer containing 0.5% NP‐40, cOmplete and PhosSTOP inhibitors (Roche) and the lysate was cleared by centrifugation. The lysates were incubated with anti‐HA‐agarose overnight, washed 3× with lysis buffer, and analyzed by immunoblotting. For GST pulldown experiments, U2OS/NOD2 cells were lysed in TBS lysis buffer containing 0.5% NP‐40, cOmplete and PhosSTOP inhibitors (Roche). Cleared lysates were pretreated with kinase inhibitors or DMSO and incubated with GST‐XIAP‐BIR2 bound to Glutathione Sepharose at 4°C overnight. Bound material was washed 3× with lysis buffer or PBS, eluted with 15 mM Glutathione in PBS, and analyzed by immunoblotting. […] The bound material was eluted and analyzed as described above.
For coimmunoprecipitation of HA-XIAP with RIPK2, transfected and treated cells were lysed in TBS buffer containing 0.5% NP-40, cOmplete and PhosSTOP inhibitors (Roche) and the lysate was cleared by centrifugation. The lysates were incubated with anti-HA-agarose overnight, washed 3x with lysis buffer and analyzed by immunoblotting. For GST pull-down experiments, U2OS/NOD2 were lysed in TBS lysis buffer containing 0.5% NP-40, cOmplete and PhosSTOP inhibitors (Roche).
Cleared lysates were pretreated with kinase inhibitors or DMSO and incubated with GST-XIAP-BIR2 bound to Glutathione Sepharose at 4 °C overnight. Bound material was washed 3x with lysis buffer or PBS, eluted with 15 mM Glutathione in PBS and analyzed by immunoblotting. In pull-down […]
inhibitors or DMSO control in PBS were added together with RIPK2 kinase domain to GST-XIAP-BIR2 bound to Glutathione Sepharose. The bound material was eluted and analyzed as described above. […]

NanoLuc-RIPK2 = target: T2, NanoLuc-RIPK2 (Homo sapiens, UniProt O43353); assay: nanoBRET cellular RIPK2 residence time assay in HEKBlue cells; assay type: binding; conditions: t1/2 for probe to engage RIPK2 after washout of inhibitor
T2 construct: host or cells: hNOD2-HEKBlue cells

recombinant RIPK2 kinase = target: T3, recombinant RIPK2 kinase (Homo sapiens, UniProt O43353); assay: RIPK2 ADPGlo in vitro kinase assay; assay type: biochemical; conditions: average ± SD of at least three titrations, read-out: IC50, In vitro kinase, RIPK2 ADPGIo
T3 construct: made in house
From the text: The BIR2 domains of XIAP and cIAP1 were cloned into the pGEX‐6P1 vector and were expressed in E. coli (BL21) cells as a fusion protein with N‐terminal 6xHis (XIAP BIR2 only) and GST tags. Protein expression was induced with IPTG, and cells were lysed using BugBuster protein extraction reagent (#70921, Merck Millipore) according to manufacturer's instructions. Proteins were purified with the FPLC protein purification system ÄKTA PrimePlus (GE Healthcare Life Sciences) using HisTrap FF column purification followed by gel filtration (HiLoad 26/600 Superdex 75 pg (GE Healthcare Life Sciences)). Collected fractions were stored at −80°C and used for probing of peptide array membranes. Expression and purification of recombinant RIPK1‐3 was performed as previously described (Canning et al, 2015; Najjar et al, 2015). RIPK1‐3 ADPGlo kinase assays using 20 ng/well protein were performed for 2 h at room temperature also as previously described (Canning et al, 2015; Najjar et al, 2015).

RAW264.7 cells = assay: TNF ELISA, MDP-stimulated RAW264.7 cells; assay type: cell-based; conditions: Mus musculus, MDP 10 μg/ml, 24 h, read-out: RAW264.7 TNF release inhibition Est. IC50
Experimental: Figure 4 Cellular and in vivo characterization of novel RIPK2 inhibitors on inflammatory signaling • A, B ELISA measurement of TNF release from RAW264.7 cells treated with MDP (10 μg/ml, 24 h) and CSLP compounds or RIPK2 inhibitor WEHI‐345 as indicated. […] After 4 h, blood was collected by cardiac puncture and circulating levels of TNF were analyzed by ELISA. Data information: Data represent the mean ± SEM of three independent experiments. **P < 0.01, n.s., not significant. Two‐tailed unpaired Student's t‐test was used to determine statistical significance. See also Fig EV3. TEXT PRINTED IN THE PICTURE: (B) CSLP37: RAW264.7 TNF release inhibition Est. IC50 (nM): 12.6; RAW264.7 TNF release inhibition St. Err.: ±1.7 | (B) CSLP43: RAW264.7 TNF release inhibition Est. IC50 (nM): 1.2; RAW264.7 TNF release inhibition St. Err.: ±0.2 | (B) CSLP48: RAW264.7 TNF release inhibition Est. IC50 (nM): NI; RAW264.7 TNF release inhibition St. Err.: ±0.2 | (B) CSLP55: RAW264.7 TNF release inhibition Est. IC50 (nM): 143.0; RAW264.7 TNF release inhibition St. Err.: ±27.1 | (B) WEHI-345: RAW264.7 TNF release inhibition Est.
Cayman Chemical Company, Ann Arbor, MI), GSK583 (#HY-100339, MedChem Express, South Brunswick, NJ), WEHI-345 (MedKoo Biosciences, Morrisville, NC), Compound A (CpA, a kind gift from TetraLogic Pharmaceuticals, Malvern, PA). Generation of the CSLP compound series is described in Suebsuwong et al. 2018 (manuscript in preparation). […]
RAW264.7 cells were seeded into 12 well plates at a density of 1.5x10^5 cells/well in 1 ml of media.
Inhibitors were diluted and added in 1 μl DMSO 15 min prior to the addition of 10 μg/ml MDP or 10 ng/ml E. coli LPS for 24 h. For TNF measurements, 100 μl of undiluted media (MDP) or 5-fold diluted media was analyzed using Duo-Set anti-mouse TNF ELISA kit (R&D Systems, Minneapolis, MN).
Values of media-only wells were subtracted and %inhibition for each compound concentration relative to the DMSO/MDP (or LPS)-treated controls were calculated. Inhibition values + StDev were fitted by non-linear regression using Prism software (GraphPad) to calculate IC50 values. […]

T2 sequence (O43353 whole entry): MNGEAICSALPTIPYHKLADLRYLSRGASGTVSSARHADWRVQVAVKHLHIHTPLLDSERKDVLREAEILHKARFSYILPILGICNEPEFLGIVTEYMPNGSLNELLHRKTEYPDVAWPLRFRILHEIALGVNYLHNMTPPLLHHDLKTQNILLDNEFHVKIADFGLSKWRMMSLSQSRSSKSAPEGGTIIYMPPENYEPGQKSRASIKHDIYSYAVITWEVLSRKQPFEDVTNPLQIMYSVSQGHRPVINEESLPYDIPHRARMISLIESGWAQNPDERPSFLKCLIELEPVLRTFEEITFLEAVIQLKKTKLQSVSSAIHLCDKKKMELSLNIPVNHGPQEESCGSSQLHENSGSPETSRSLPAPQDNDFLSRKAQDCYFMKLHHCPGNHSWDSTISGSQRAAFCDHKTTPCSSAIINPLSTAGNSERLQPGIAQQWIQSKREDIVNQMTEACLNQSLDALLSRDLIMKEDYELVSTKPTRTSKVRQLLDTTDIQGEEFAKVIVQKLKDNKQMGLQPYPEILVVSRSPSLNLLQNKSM
T3 sequence (O43353 whole entry): as above

For `COc1cc(-c2cc(-c3ccc(N4CCNCC4)cc3)cnc2N)cc(F)c1OC` [CSLP55], the “pulldown of RIPK2 by GST-BIR2-XIAP from cell lysates” value (“pulldown of RIPK2 by GST-BIR2-XIAP” below) [1] was “little effect”, the residence time (NanoLuc-RIPK2) was 6.8 min and the IC50 (recombinant RIPK2 kinase) was 39.1 ± 3.9 nM. The IC50 (RAW264.7 cells) was 143 nM.

With `CCCS(=O)(=O)Nc1cc(-c2cc(-c3ccc(N4CCNCC4)cc3)cnc2N)cc(F)c1OC` [CSLP37] the “pulldown of RIPK2 by GST-BIR2-XIAP” value [1] was “efficiently antagonized”, the “GST-BIR2-XIAP binding to recombinant RIPK2 kinase domain” value [1] was “still antagonized” and the residence time (NanoLuc-RIPK2) was 27.1 min. The IC50 (recombinant RIPK2 kinase) was 16.3 ± 4.6 nM and the IC50 (RAW264.7 cells) was 12.6 nM.

For `CCCS(=O)(=O)Nc1cc(-c2cc(-c3ccc(N4CCNCC4)cc3)cnc2N)ccc1O` [CSLP48], the “pulldown of RIPK2 by GST-BIR2-XIAP” value [1] was “little effect”, the residence time (NanoLuc-RIPK2) was 127 min and the IC50 (recombinant RIPK2 kinase) was 53.5 ± 5.7 nM. For the same compound, the IC50 (RAW264.7 cells) was > 1000 nM.

Work on `Cc1ccc(-c2nn(C(C)(C)CNC(=O)c3ccncc3)c3ncnc(N)c23)cc1` [WEHI‐345, reference compound] yielded a residence time (NanoLuc-RIPK2) of 7.5 min, an IC50 (recombinant RIPK2 kinase) of 37.3 ± 1.3 nM and an IC50 (RAW264.7 cells) of 123 nM.

`CCCS(=O)(=O)Nc1cc(-c2cc(-c3ccc(N4CCNCC4)cc3)cnc2N)cc(OC)c1OC` [CSLP43] was tested, and the “pulldown of RIPK2 by GST-BIR2-XIAP” value [1] was “efficiently antagonized”, the “GST-BIR2-XIAP binding to recombinant RIPK2 kinase domain” value [1] was “still antagonized” and the residence time (NanoLuc-RIPK2) was 107 min. The IC50 (recombinant RIPK2 kinase) was 19.9 ± 0.8 nM and the IC50 (RAW264.7 cells) was 1.2 nM.
